According to patent publication US11390631B1, “Benzodiazepine derivatives as RSV inhibitors” (priority 2015, dated 2022):
Where two headings read alike, the source gives them in different places.

What was measured:
[1] = system: Human RSV-A (“Long” strain); test: RSV-A assay: inhibition of cytopathic effect in Hep-2 cells, ATPlite readout; format: cell-based, Human respiratory syncytial virus (HRSV); conditions: human respiratory syncytial virus, read-out: Human RSV-A (“Long” strain) EC50
Method in brief: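 Cytopathic-effect protection was read as ATP content (ATPlite luminescence) after a 5-day incubation. Setup: Hep-2 cells at 8,000 per well, RSV-A Long at MOI 0.1, 2-fold serial compound dilutions in duplicate. Cytotoxicity (CC50) was measured on an identical uninfected plate run in parallel.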

[2] = system: RSV-B, genotype B, strain 9320; test: RSV-B assay: A549 cells infected with RSV-B, qPCR or ATPlite readout; format: cell-based, Human respiratory syncytial virus (HRSV); conditions: human respiratory syncytial virus
Description: Hep-2 cells, (originally derived from tumors grown in irradiated-cortisonised weanling rats that had been injected with epidermoid carcinoma tissue from a person's larynx, but later found to be indistinguishable from HeLa cells by PCR DNA analysis), were used for the culturing of genotype B, strain 9320. Flasks were inoculated with RSV-B and viral stocks were collected once cytopathic effect (CPE) was greater than […]. Viral stocks in 25% o sucrose media were snap frozen using liquid nitrogen to increase viral stability. Viral stock titers were quantified by tissue culture infectious dose 50% o (TCID50) using 8,000 cells per well and 5-fold viral dilutions across a 96-well plate, cultured for 4 days. Viral stock titers were also quantified by a plaque forming unit assay, as described elsewhere.
The assay is run as follows: A549 cells (originally derived through explant culture from a person's carcinomatous lung tissue) are seeded into the inner 60 wells of a 96-well plate at 3,000 cells per well in a volume of 50 μL using A549 growth media (F-12K Media, 1% Penn/Strep, 1% nonessential amino acids, 10% heat-inactivated FBS). 2-fold serial dilutions of control and test compounds are added to the wells in duplicate in a total volume of 25 μL. Viral stock is then added to the wells at a multiplicity of infection (MOI) of 0.5 in a volume of 25 μL, bringing the total volume of each well to 100 μL. The MOI is calculated using the PFU/mL, or TCID50 if unavailable. Each 96-well plate has a control column of 6 wells with cells and virus but no compound (negative control, max CPE), a column with cells but no compound or virus (positive control, minimum CPE), and a column with no cells or virus or compound (background plate/reagent control). The control wells with cells but no virus are given an additional 25 uL of growth media containing an equal quantity of sucrose as those wells receiving the viral stock in order to keep consistent in media and volume conditions. The outer wells of the plate are filled with 125 μL of moat media (DMEM, 1% Penn/Strep) to act as a thermal and evaporative moat around the test wells. 6 days post infection, the plates are read using qPCR or ATP lite (50 uL added per well), which quantifies the amount of ATP (a measure of cell health) present in each well. Assay plates treated with APTlite are read using the Envision luminometer. […] EC50 ranges are as follows: A<0.4 μM; B 0.4-0.8 μM; C>0.8 μM.

[3] = Cytotoxicity on parallel plate without virus, ATPlite readout; format: cell-based; conditions: human, Hep-2 cells (no virus), Hep-2 cells without virus, 5-day incubation
Protocol: Following extensive parameter testing, the final assay is run as follows: Hep-2 cells are seeded into the inner 60 wells of a 96-well plate at 8,000 cells per well in a volume of 50 μL using Growth Media (DMEM without phenol red, 1% L-Glut, 1% Penn/Strep, 1% nonessential amino acids, 10% heat-inactivated FBS). 2-fold serial dilutions of control and test compounds are added to the wells in duplicate in a total volume of 25 μL. Viral stock is then added to the wells at a multiplicity of infection (MOI) of 0.1 in a volume of 25 μL, bringing the total volume of each well to 100 μL. The MOI is calculated using the PFU/mL, or TCID50 if unavailable. Each 96-well plate has a control column of 6 wells with cells and virus but no compound (negative control, max CPE), a column with cells but no compound or virus (positive control, minimum CPE), and a column with no cells or virus or compound (background plate/reagent control). The control wells with cells but no virus are given an additional 25 uL of growth media containing an equal quantity of sucrose as those wells receiving the viral stock in order to keep consistent in media and volume conditions. The outer wells of the plate are filled with 125 μL of moat media (DMEM, 1% Penn/Strep) to act as a thermal and evaporative moat around the test wells. Following a 5-day incubation period, the plates are read using ATPlite (50 uL added per well), which quantifies the amount of ATP (a measure of cell health) present in each well. Assay plates are read using the Envision luminometer. In parallel, cytotoxicity is examined on an additional 96-well plate treated in an identical manner, but substituting the 25 μL of viral stock for 25 μL of growth media. […] EC50 ranges are as follows: A<0.4 μM; B 0.4-0.8 μM; C>0.8 μM and CC50 ranges are as follows: A>50 μM; B 10-50 μM; C<10 μM.

[4] = A549, read-out: Human RSV-B EC50
[5] = 120 h, Hep-2 cells, MOI 0.1, 5-day incubation, ATPlite
[6] = A549 cells infected with RSV-B strain 9320, MOI 0.5, read-out: Human RSV-B EC50

EC50 [1, 5] | EC50 [2, 6] | Structure (SMILES) | EC50 ([1]; HEp-2, 120 h) | EC50 [2, 4] | CC50 at 5 days [3]
 |  | O=C1Nc2ccccc2C(c2ccccc2)=NC1Nc1ccc(-c2ccccc2)nn1 (centres unmarked) [Example 95] | 400 to 800 nM | > 800 nM | 
 |  | O=C1Nc2ccccc2C(c2ccccc2)=NC1Nc1nc2ccc(F)cc2o1 (centres unmarked) [Example 103] | > 800 nM |  | 10000 to 50000 nM
 |  | O=C1Nc2ccccc2C(c2ccccc2)=NC1Nc1nc2cc(F)ccc2o1 (centres unmarked) [Example 104] | > 800 nM |  | 10000 to 50000 nM
 |  | O=C1Nc2ccccc2C(c2ccccc2)=NC1Nc1nc2c(F)cccc2o1 (centres unmarked) [Example 105] | > 800 nM |  | > 50000 nM
 |  | Cc1ccc2oc(NC3N=C(c4ccccc4)c4ccccc4NC3=O)nc2c1 (centres unmarked) [Example 106] | > 800 nM |  | < 10000 nM
 |  | CN(C)c1ccc(-c2nnc(NC3N=C(c4ccccc4)c4ccccc4NC3=O)o2)nc1 (centres unmarked) [Example 108] | > 800 nM | > 800 nM | 
 |  | O=C1Nc2ccccc2C(c2ccccc2)=NC1Nc1nnc(-c2cccnc2N2CCOCC2)o1 (centres unmarked) [Example 120] | < 400 nM | 400 to 800 nM | 
 |  | O=C1Nc2ccccc2C(c2ccccc2)=NC1Nc1nnc(-c2ccc(C(F)(F)F)cc2N2CCOCC2)o1 (centres unmarked) [Example 123] | < 400 nM | 400 to 800 nM | 
 |  | O=C1Nc2ccccc2C(c2ccccc2)=NC1Nc1nnc(-c2ccc(N3CCOCC3)cc2)o1 (centres unmarked) [Example 124] |  | < 400 nM | 
 |  | O=C1Nc2ccccc2C(c2ccccc2)=NC1Nc1nnc(-c2ccccc2N2CCOCC2)o1 (centres unmarked) [Example 125] |  | 400 to 800 nM | 
 |  | O=C1Nc2ccccc2C(c2ccccc2)=NC1Nc1nnc(-c2ccc(F)cc2N2CCOCC2)o1 (centres unmarked) [Example 127] | < 400 nM | < 400 nM | 
 |  | O=C1Nc2ccccc2C(c2ccccc2)=NC1Nc1nnc(-c2ccc(-n3cccn3)cc2N2CCOCC2)o1 (centres unmarked) [Example 129] | < 400 nM | < 400 nM | 
 |  | N#Cc1ccc(-c2nnc(NC3N=C(c4ccccc4)c4ccccc4NC3=O)o2)c(N2CCOCC2)c1 (centres unmarked) [Example 131] | < 400 nM | < 400 nM | 
 |  | O=C1Nc2ccccc2C(c2ccccc2)=N[C@@H]1Nc1nnc(-c2ncc(F)cc2N2CCOCC2)o1 [Example 136, (S)-3-((5-(5-fluoro-3-morpholinopyridin-2-yl)-1,3,4-oxadiazol-2-yl)amino)-5-phenyl-1,3-dihydro-2H-benzo[e][1,4]diazepin-2-one] | < 400 nM | < 400 nM | 
< 400 nM | < 400 nM | O=C1Nc2ccccc2C(c2ccccc2)=NC1Nc1nnc(-c2ncc(C(F)(F)F)cc2N2CCOCC2)o1 (centres unmarked) [Example 139] |  |  | 
 |  | Cc1ccc(-c2nnc(NC3N=C(c4ccccc4)c4ccccc4NC3=O)o2)c(N2CCOCC2)n1 (centres unmarked) [Example 144] | < 400 nM | < 400 nM | 
 |  | N#Cc1ccc(-c2nnc(N[C@H]3N=C(c4ccccc4)c4ccccc4NC3=O)o2)c(N2CCOCC2)n1 [Example 153] | < 400 nM | < 400 nM | 
 |  | Cn1c(N2CCOCC2)c(-c2nnc(N[C@H]3N=C(c4ccccc4)c4ccccc4NC3=O)o2)ccc1=O [Example 155] | < 400 nM | < 400 nM | 
 |  | Cc1nc(N2CCOCC2)c(-c2nnc(N[C@H]3N=C(c4ccccc4)c4ccccc4NC3=O)o2)cc1C#N [Example 158] | < 400 nM | < 400 nM | 
 |  | N#Cc1cnc(-c2nnc(N[C@H]3N=C(c4ccccc4)c4ccccc4NC3=O)o2)c(N2CCOCC2)c1 [Example 160] |  | < 400 nM | 

EC50 [1, 5] | EC50 [2, 6] | Structure (SMILES) | EC50 ([1]; HEp-2, 120 h) | EC50 [2, 4] | CC50 at 5 days [3]
 |  | O=C1Nc2ccccc2C(c2ccccc2)=N[C@@H]1Nc1nnc(-c2ncc(Br)cc2N2CCOCC2)o1 [Example 168] | < 400 nM | < 400 nM | 
 |  | O=C1Nc2ccccc2C(c2ccccc2)=N[C@@H]1Nc1nnc(-c2ncc(C3CC3)cc2N2CCOCC2)o1 [Example 169] | < 400 nM | < 400 nM | 
 |  | N#Cc1cc(-c2nnc(N[C@H]3N=C(c4ccccc4)c4ccccc4NC3=O)o2)c(N2CCOCC2)nc1C1CC1 [Example 175] | < 400 nM | 400 to 800 nM | 
 |  | O=C1Nc2ccccc2C(c2ccccc2)=N[C@@H]1Nc1nnc(-c2oc3ccccc3c2N2CCOCC2)o1 [Example 179] | < 400 nM | < 400 nM | 
 |  | CN1CCN(c2ccccc2-c2nnc(NC3N=C(c4ccccc4)c4ccccc4NC3=O)o2)CC1 (centres unmarked) [Example 224] | > 800 nM | < 400 nM | 
 |  | O=C1Nc2ccccc2C(c2ccccc2)=N[C@@H]1Nc1nnc(-c2cccnc2N2CCOCC2)o1 [Example 242] | < 400 nM | < 400 nM | 
 |  | C[C@@H]1COCCN1c1ncccc1-c1nnc(NC2N=C(c3ccccc3)c3ccccc3NC2=O)o1 (some centres unmarked) [Example 245] | < 400 nM | 400 to 800 nM | 
 |  | O=C1Nc2ccccc2C(c2ccccc2)=N[C@@H]1Nc1nnc(-c2ncc(C(F)(F)F)cc2N2C3CCC2COC3)o1 [Example 250] | < 400 nM | < 400 nM | 
 |  | O=C1Nc2ccccc2C(c2ccccc2)=N[C@@H]1Nc1nnc(-c2ncc(C(F)(F)F)cc2N2CC3CCC(C2)O3)o1 [Example 251] | < 400 nM | < 400 nM | 
 |  | Cc1ccc(-c2nnc(N[C@H]3N=C(c4ccccc4)c4ccccc4NC3=O)o2)c(N2CCOCC2)n1 [Example 252] | < 400 nM | < 400 nM | 
< 400 nM | < 400 nM | O=C1Nc2ccccc2C(c2ccccc2)=N[C@@H]1Nc1nnc(-c2ncc(C(F)(F)F)cc2N2CCOCC2)o1 [Example 253] |  |  | 
 |  | C[C@H]1CN(c2ncccc2-c2nnc(NC3N=C(c4ccccc4)c4ccccc4NC3=O)o2)CCO1 (some centres unmarked) [Example 263] | 400 to 800 nM | 400 to 800 nM | 
 |  | COC1CCN(c2cc(C(F)(F)F)cnc2-c2nnc(N[C@H]3N=C(c4ccccc4)c4ccccc4NC3=O)o2)CC1 [Example 268] | > 800 nM | 400 to 800 nM | 
 |  | O=C1Nc2ccccc2C(c2ccccc2)=N[C@@H]1Nc1nnc(-c2ncc(C(F)(F)F)cc2N2CCC(F)CC2)o1 [Example 269] | > 800 nM | 400 to 800 nM | 
 |  | Cc1nc(-c2nnc(N[C@H]3N=C(c4ccccc4)c4ccccc4NC3=O)o2)c(N2CCOCC2)s1 [Example 272] | < 400 nM | < 400 nM | 
 |  | O=C1Nc2ccccc2C(c2ccccc2)=N[C@@H]1Nc1nnc(-c2ccc(C(F)(F)F)nc2N2CC3CCC(C2)O3)o1 [Example 276] | 400 to 800 nM | > 800 nM | 
 |  | C[C@@H]1CN(c2cc(C(F)(F)F)cnc2-c2nnc(N[C@H]3N=C(c4ccccc4)c4ccccc4NC3=O)o2)CCO1 [Example 277] | < 400 nM | < 400 nM | 
 |  | C[C@H]1CN(c2cc(C(F)(F)F)cnc2-c2nnc(N[C@H]3N=C(c4ccccc4)c4ccccc4NC3=O)o2)CCO1 [Example 278] | < 400 nM | < 400 nM | 
 |  | COCCOc1cc(C#N)ccc1-c1nnc(N[C@H]2N=C(c3ccccc3)c3ccccc3NC2=O)o1 [Example 300] | < 400 nM | < 400 nM | 
 |  | N#CCCNc1cc(C(F)(F)F)cnc1-c1nnc(N[C@H]2N=C(c3ccccc3)c3ccccc3NC2=O)o1 [Example 303] | < 400 nM | < 400 nM | 
